US4556662A, “Bispidine derivatives and antiarrhythmic compositions” (BASF Aktiengesellschaft, priority 1981, dated 1985)
Values after ≈ are worked out from the molar mass of the structure shown. Where two headings read alike, the source gives them in different places.

Experiments:
[1] = Toxicity in the rat (oral), dose at which toxic symptoms occur; format: in vivo, rat (Sprague Dawley, male); conditions: in vivo, read-out: Q: quotient of the acute toxic dose and the antiarrhythmic ED 50%
Procedure: (§1) Moreover, the antiarrhythmic activity of the novel substances is determined on male rats (Sprague Dawley, weight 200 to 230 g), after oral administration. 45 minutes after administration of the substance, the animals are anesthetized with sodium thiobutabarbital (100 mg/kg, administered intraperitoneally). Aconitine is used as the arrhythmogenic substance, and is infused intravenously at a rate of 0.005 mg/kg per min, 60 minutes after administration of the test substance. […] The dose which prolongs the infusion time by 50%, i.e. the ED 50%, is determined from the linear relationship between log dose (mg/kg) of the test substance and the relative prolongation of the aconitine infusion time (%).
(§2) Further, the dose at which toxic symptoms (changes in the initial ECG, cyanosis or cramp) occur is determined. The quotient of the acute toxic dose and the antiarrhythmic ED 50% is therefore determined as a measure of the toleration.

rat = assay: as above; format: in vivo, rat (Sprague Dawley, male); conditions: for Toxic dose (dose after whose administration the first toxic symptoms are observed): changes in the initial ECG, cyanosis or cramp
Procedure: as §1, §2

[2] = system: aconitine-induced arrhythmia in rats; assay: Antiarrhythmic effect on aconitine-induced arrhythmia in the rat (oral); format: in vivo, rat (Sprague Dawley, male); conditions: for ED50: Rattus norvegicus, po, 1 h, read-out: Effective dose EC 50% (dose which prolongs the aconitine infusion time by 50%); for Effective dose R.A. (relative activity): rat, reference substance B = 1.00
Procedure: as §1

[3] = system: blood pressure of unanesthetized dogs; assay: Effect on the blood pressure of unanesthetized dogs (intravenous); format: in vivo, dog
Procedure: Moreover, the effect of the compound according to the invention on the systolic and diastolic blood pressure of unanesthetized dogs on intravenous administration is tested.

[4] = system: isolated guinea pig atrium; assay: Isolated guinea pig left atria: decrease in maximum driving rate (antiarrhythmic activity); parameters: species or system guinea pig (Pirbright white, male); conditions: for EC50: Cavia porcellus, isolated left atria, pH 7.4, 32° C., read-out: Maximum driving rate EC 50% (concentration which causes a 50% decrease in the maximum driving rate); for Maximum driving rate R.A. (relative activity): reference substance B = 1.00
Procedure: (§3) The antiarrhythmic activity of the compound according to the invention is determined on isolated left atria of male guinea pigs (Pirbright white, weight 350 to 450 g). Atria suspended in an organ bath (volume 125 ml) containing carbogen (95% O2 /5% CO2)-saturated Tyrode's solution (pH 7.4, 32° C.) are prestressed with 1.0 g and are driven by square wave pulses of 1 Hz base rhythm and double stimulation threshold values (rheo base: 0.2 to 1.4 V, chronaxia: 0.3 to 0.5 msec). As a criterion of the antiarrhythmic activity, the frequency (in Hz) at which the atria are just still able to follow the sequence of pulses (the maximum driving rate) is determined by automatic continuous increase in frequency. The concentration which produces a 50% decrease in maximum driving rate, i.e. the EC 50%, is calculated from the linear relationship between log concentration (mg/1) of the active substance and relative decrease in maximum driving rate (Δ%).

[5] = system: isolated strips of rat aorta; assay: Constrictive effect on isolated strips of rat aorta; conditions: for EC50: spiral strips of rat aorta, 37° C.
Text: The novel compounds are further characterized by investigation whether, in addition to antiarrhythmic properties, stimulating effects on smooth muscle, which may lead to undesirable side effects (hypertension or stimulation of the uterus), are detectable.

[6] = system: isolated guinea pig atrium; assay: Isolated guinea pig left atria: decrease in force of contraction (negatively inotropic effect); parameters: species or system guinea pig (Pirbright white, male); conditions: for EC25: Cavia porcellus, isolated left atria, pH 7.4, 32° C., read-out: Force of contraction EC 25% (concentration which causes a 25% decrease in the force of contraction); for Q: quotient EC 25% (decrease in force of contraction)/EC 50% (decrease in maximum driving rate): isolated guinea pig atrium; for Force of contraction R.A. (relative activity): reference substance B = 1.00
Procedure: as §3
Furthermore, the concentration which produces a 25% decrease in contraction amplitude, i.e. the EC 25%, is determined, as a measure of the negatively inotropic effect, from the linear relationship between log concentration (mg/1) and relative change in contraction amplitude (Δ%).

[7] = read-out: EC 50, constrictive effect (50% of the contraction obtained with noradrenalin 10^-6 mol/l)

| Structure (SMILES) | selectivity ratio [1] | Toxic dose (dose after whose administration the first toxic symptoms are observed) (rat) | ED50 [2] | effect on systolic and diastolic blood pressure (in words) [3] | Change in blood pressure, diastolic ([3]; 2.0 mg/kg) | Change in blood pressure, systolic ([3]; 2.0 mg/kg) | EC50 [4] | EC50 [5, 7] | EC25 [6] | Q: quotient EC 25% (decrease in force of contraction)/EC 50% (decrease in maximum driving rate) [6] | Effective dose R.A. (relative activity) ([2]; oral) | Maximum driving rate R.A. (relative activity) [4] | Force of contraction R.A. (relative activity) [6] | other results |
| --- | --- | --- | --- | --- | --- | --- | --- | --- | --- | --- | --- | --- | --- | --- |
| c1ccc(CN2CC3CC(C2)CN(Cc2ccccc2)C3)cc1 [B, N,N'-bisbenzylbispidine] | 4.4 | 100 mg/kg | 22.7 mg/kg | substantial increase in the systolic and in particular in the diastolic blood pressure | +59 Δmm Hg | +20 Δmm Hg | 5.92 µg/mL (≈ 19.3 µM) | 3.8 µM | 21.8 µg/mL (≈ 71.1 µM) | 3.68 |  |  |  |  |
| C1CCN2C[C@@H]3C[C@@H](CN4CCCC[C@@H]34)[C@H]2C1 [Sparteine, sparteine] | 4.1 | 464 mg/kg | 112 mg/kg | substantial increase in the systolic and in particular in the diastolic blood pressure |  |  |  | 550 µM |  |  | 4.93 |  |  | Change in blood pressure, diastolic ([3]; 5.0 mg/kg): +40 Δmm Hg; Change in blood pressure, systolic ([3]; 5.0 mg/kg): +19 Δmm Hg |
| c1ccc(CN2CC3CC(C2)CN(CC(c2ccccc2)c2ccccc2)C3)cc1 [A, N-benzyl-N'-(2,2-diphenylethyl)-bispidine] | 7.7 | 100 mg/kg | 13 mg/kg |  |  |  | 1.43 µg/mL (≈ 3.61 µM) |  | 4.92 µg/mL (≈ 12.4 µM) | 3.44 | 1.75 | 3.93 | 4.43 |  |
| Nc1ccc(C(=O)N2CC3CC(CN(Cc4ccccc4)C3)C2)cc1 [C, N-(4-Aminobenzoyl)-N'-benzylbispidine] | 7.3 | 46.4 mg/kg | 6.37 mg/kg | no hypertensive effect | -2 Δmm Hg | -5 Δmm Hg | 6.14 µg/mL (≈ 18.3 µM) |  | 100 µg/mL (≈ 298 µM) | 16.3 | 3.56 | 0.96 | 0.22 | difference between toxic and antiarrhythmic doses, relative to reference substances (rat; versus reference substances): about twice the difference or about the same difference, respectively; antiarrhythmic activity relative to reference substance A ([2]; aconitine-induced arrhythmia in rats, oral, versus A): twice; antiarrhythmic activity relative to reference substance B ([2]; aconitine-induced arrhythmia in rats, oral, versus B): about 4 times; antiarrhythmic activity relative to sparteine ([2]; aconitine-induced arrhythmia in rats, oral, versus sparteine): ~18 times; antiarrhythmic effect on isolated guinea pig atria (in words) ([4]; decrease in maximum driving rate): powerful antiarrhythmic effect; stimulating effects on smooth muscle (in words) ([5]; Table 3): lack of stimulating effects on smooth muscle; constrictive effect on the vascular muscle in vitro (in words) ([5]; even in very high concentrations (3.10^-4 mol/l)): no constrictive effect; EC50 ([5]; no effect up to 3.10^-4 mol/l, read-out: EC 50, constrictive effect (symbol for no effect)): > 300 µM; decrease in the force of contraction (in words) ([6]; isolated guinea pig atria): relatively small decrease in the force of contraction |
